# Data from ChEMBL document CHEMBL5236548, “Marine Natural Products: A Potential Source of Anti-hepatocellular Carcinoma Drugs” (J Med Chem, 2021).
# Key:
# [1] = tested on: HepG2; assay: Antiproliferative activity against human HepG2 cells incubated for 72 hrs; assay type: functional, cell-based; details: HepG2, 72 h
# [2] = tested on: HepG2; assay: Antiproliferative activity against human HepG2 cells incubated for 72 hrs by MTT assay; assay type: functional, cell-based; details: HepG2, 72 h
# [3] = tested on: PLC-PRF-5; assay: Cytotoxicity against human PLC-PRF-5 cells by SRB assay; assay type: functional, cell-based
# [4] = tested on: HepG2; assay: Cytotoxicity against human HepG2 cells by SRB assay; assay type: functional, cell-based
# [5] = tested on: HepG2; assay: Antiproliferative activity against doxorubicin resistant human HepG2 cells for 24 hrs in presence of c-phycocyanin by MTT assay; details: HepG2, 24 h
# [6] = tested on: SMMC-7721; assay: Cytotoxicity against human SMMC-7721 cells by SRB assay; assay type: functional, cell-based
# [7] = tested on: HepG2; assay: Cytotoxicity against human HepG2 cells incubated for 48 hrs by MTT assay; assay type: functional, cell-based; details: HepG2, 48 h
# [8] = tested on: HepG2; assay: Cytotoxicity against human HepG2 cells by MTT assay; assay type: functional, cell-based
# [9] = tested on: HA22T cell line; assay: Cytotoxicity against human HA22T cells by MTT assay; assay type: functional, cell-based
# [10] = tested on: Hep 3B2; assay: Cytotoxicity against human Hep3B cells by MTT assay; assay type: functional, cell-based
# [11] = Cytotoxicity against human HepG3 cells measured after 3 days by MTT assay; assay type: functional, cell-based; details: HepG3, 72 h
# [12] = tested on: HepG2; assay: Cytotoxicity against human HepG2 cells measured after 3 days by MTT assay; assay type: functional, cell-based; details: HepG2, 72 h
# [13] = tested on: HepG2; assay: Antiproliferative activity against doxorubicin resistant human HepG2 cells at 50 uM incubated for 24 hrs by MTT assay relative to control; assay type: functional
# [14] = tested on: HepG2; assay: Antiproliferative activity against doxorubicin sensitive human HepG2 cells assessed as decrease in cell proliferation at 50 uM incubated for 24 hrs by MTT assay relative to control; assay type: functional; parameters: scale not given: the % may be the effect or the level left
# [15] = tested on: HepG2; assay: Anticancer activity against human HepG2 cells by MTT assay; assay type: functional, cell-based
# [16] = tested on: Huh-7; assay: Cytotoxicity against human Huh-7 cells; assay type: functional, cell-based
# [17] = tested on: Hep 3B2; assay: Cytotoxicity against human Hep3B cells; assay type: functional, cell-based
# [18] = tested on: HepG2; assay: Anticancer activity against human HepG2 cells by SRB assay; assay type: functional, cell-based
# [19] = tested on: SMMC-7721; assay: Antiproliferative activity against human SMMC-7721 cells measured after 48 hrs; assay type: functional, cell-based; details: SMMC-7721, 48 h
# [20] = tested on: Bel-7402; assay: Growth inhibition of human Bel-7402 cells; assay type: functional, cell-based
structure (smiles),measurement,setting,value
CC[C@H]1C=CCC[C@@]2(C[C@@H]3CC[C@]4(O)[C@H](C(=O)OCCCCCCCCCCCCCCCCC(=O)N(CCCN)C[C@@H](O)CCN)[C@]5(CCC[C@@H](C)O5)NC(=N2)N34)O1,IC50,[1],2110 nM
Cc1cc2nc([C@@H]3C4C5CCC([C@H](C)CCCC(C)C)[C@@]5(C)CCC4[C@@]4(C)CC[C@H](O)C[C@@]34O)[nH]c2cc1C (some centres not stated),IC50,[2],4500 nM
COc1cccc2c1C(=O)c1c(O)c3c(c(O)c1C2=O)C[C@@](O)(C(=O)CO)C[C@@H]3O[C@H]1C[C@H](N)[C@H](O)[C@H](C)O1 [DOXORUBICIN],IC50,[3],1030 nM
same,IC50,[4],919 nM
same,IC50,[5],10000 nM
same,IC50,[6],706 nM
C[C@]1(O)Cc2c(O)c3c(c(O)c2C[C@H]1O)C(=O)C1=C(SCCS1)C3=O,IC50,[7],1980 nM
CCCCC/C=C\CC1(O)C=C(Br)C(=O)/C1=C\C=C\CCCC(=O)OC (configuration not stated),IC50,[8],590 nM
same,IC50,[9],410 nM
same,IC50,[10],470 nM
C=C(CC[C@@H](C)[C@H]1[C@@H](O)C[C@H]2[C@@H]3CC=C4C[C@@H](O[C@@H]5O[C@@H](C)[C@@H](OC(C)=O)[C@@H](O)[C@@H]5O)CC[C@]4(C)[C@H]3[C@H](O)C[C@]12C)C(C)C,IC50,[11],18900 nM
same,IC50,[12],17600 nM
C/C=C1/C(=C\c2[nH]c(/C=C3N=C(/C=C4/NC(=O)C(CC)=C4C)C(C)=C/3CCC(=O)O)c(CCC(=O)O)c2C)NC(=O)C1C (configuration not stated),Activity,[13],50%
same,Activity,[14],40%
C[C@@H]1O[C@@H](O[C@H]2CC[C@H](O[C@@]3(C)CC(=O)[C@]4(O)C5=C(C=C[C@]4(O)C3)C(=O)c3c(ccc([C@H]4C[C@H]6O[C@H]7CC(=O)[C@H](C)O[C@@H]7O[C@@H]6[C@@H](C)O4)c3O)C5=O)O[C@H]2C)C=CC1=O,IC50,[3],244 nM
same,IC50,[4],135 nM
same,IC50,[6],33 nM
COc1ccc2[nH]c([C@@H]3C4C5CCC([C@H](C)CCCC(C)C)[C@@]5(C)CCC4[C@@]4(C)CC[C@H](O)C[C@@]34O)nc2c1 (some centres not stated),IC50,[2],8400 nM
CO[C@@]12[C@H](COC(N)=O)C3=C(C(=O)C(C)=C(N)C3=O)N1C[C@@H]1N[C@@H]12 [MITOMYCIN],IC50,[15],130 nM
CC[C@H]1C=CCC[C@@]2(C[C@@H]3CCC4[C@H](C(=O)OCCCCCCCCCCCCCCCC(=O)N(CCCN)C[C@@H](O)CCN)[C@]5(CCC[C@@H](C)O5)NC(=N2)N43)O1 (some centres not stated),IC50,[1],2660 nM
COc1cc(O)c2c(c1O)C(=O)C1=C(C2=O)C(O)C(O)C(C)(O)C1 (configuration not stated),IC50,[16],9600 nM
same,IC50,[17],3200 nM
CC1=CC[C@@H]2[C@@H](CC[C@@]2(C)O)C(C)(C)[C@H]1CC[C@@H]1[C@@]2(C)CC[C@@H](O)C(C)(C)O[C@@H]2CC[C@]1(C)O,IC50,[18],17200 nM
O=c1[nH]cc(F)c(=O)[nH]1 [FLUOROURACIL],IC50,[19],20000 nM
Oc1cc(Br)c(Cc2cc(O)c(O)cc2Br)cc1O,IC50,[20],15900 nM
CCCCSC1=C(SCCCC)C(=O)c2c(O)c3c(c(O)c2C1=O)C[C@@H](O)[C@@](C)(O)C3,IC50,[7],5040 nM
C[C@]1(O)Cc2c(O)c3c(c(O)c2C[C@H]1O)C(=O)C=C(NCc1ccc(F)cc1)C3=O,IC50,[7],11200 nM
